How the values were obtained:
[1] = tested on: T1, SfruOR13; experiment: two-electrode voltage clamp, Xenopus oocytes co-expressing SfruOR13/ORco, dose-response; format: cell-based, Spodoptera frugiperda
T1 construct: gene OR13; full-length ORF; with SfruORco

[2] = tested on: T2, SfruOR16; experiment: two-electrode voltage clamp, Xenopus oocytes co-expressing SfruOR16/ORco, dose-response; format: cell-based, Spodoptera frugiperda
T2 construct: gene OR16; full-length ORF; with SfruORco

| EC50 [1] | EC50 [2] | Compound |
| --- | --- | --- |
| 6.08 µM | – | CCCC/C=C\CCCCCCCCOC(C)=O [Z9-14:OAc] |
| – | 16.9 µM | CCCC/C=C\CCCCCCCCO [Z9-14:OH, (Z)-9-tetradecen-1-ol] |
